{"source": "patent US4473578A", "about": "“β-Lactam antibiotics and their use” (Beecham Group Limited, priority 1979, dated 1984)", "assay_in_all_cases": "Antibacterial effectiveness in agar", "assay_type_in_all_cases": "cell-based", "key": {"[1]": {"test_system": "Bacteroides fragilis 2118", "conditions": "in agar; Bacteroides fragilis 2118; read-out: M.I.C.", "from_the_text": "(§1) b. Antibacterial effectiveness of the compound of […]"}, "Bacteroides fragilis B3": {"test_system": "Bacteroides fragilis B3", "conditions": "in agar; Bacteroides fragilis B3; read-out: M.I.C.", "from_the_text": "as §1"}, "[2]": {"test_system": "Bacteroides fragilis BC16", "conditions": "in agar; Bacteroides fragilis BC16; read-out: M.I.C.", "from_the_text": "as §1"}, "[3]": {"test_system": "Bacteroides fragilis VP1 8249", "conditions": "VP18249; in agar; Bacteroides fragilis VP1 8249; read-out: M.I.C.", "from_the_text": "as §1"}, "[4]": {"test_system": "Bacteroides fragilis WS12", "conditions": "in agar; Bacteroides fragilis WS12; read-out: M.I.C.", "from_the_text": "as §1"}, "Bacteroides fragilis WS1": {"test_system": "Bacteroides fragilis WS1", "conditions": "in agar; Bacteroides fragilis WS1; read-out: M.I.C.", "from_the_text": "as §1"}, "[5]": {"test_system": "Bacteroides fragilis WS41", "conditions": "in agar; Bacteroides fragilis WS41; read-out: M.I.C.", "from_the_text": "as §1"}, "[6]": {"test_system": "Citrobacter freundii T221", "conditions": "in agar; Citrobacter freundii T221; read-out: M.I.C.", "from_the_text": "as §1"}, "Citrobacter freundii W18": {"test_system": "Citrobacter freundii W18", "conditions": "in agar; Citrobacter freundii W18; read-out: M.I.C.", "from_the_text": "as §1"}, "[7]": {"test_system": "Enterbacter aerogenes NCTC 10006", "conditions": "in agar; Enterbacter aerogenes NCTC 10006; read-out: M.I.C.", "from_the_text": "as §1"}, "[8]": {"test_system": "Enterobacter cloacea NCTC 10005", "conditions": "NCTC10005; in agar; Enterobacter cloacea NCTC 10005; read-out: M.I.C.", "from_the_text": "as §1"}, "[9]": {"test_system": "Enterobacter cloacea T749", "conditions": "in agar; Enterobacter cloacea T749; read-out: M.I.C.", "from_the_text": "as §1"}, "Escherichia coli 5": {"test_system": "Escherichia coli 5", "conditions": "in agar; Escherichia coli 5; read-out: M.I.C.", "from_the_text": "as §1"}, "Escherichia coli Ba78R+": {"test_system": "Escherichia coli Ba78R+", "conditions": "in agar; Escherichia coli Ba78R+; read-out: M.I.C.", "from_the_text": "as §1"}, "Escherichia coli E8": {"test_system": "Escherichia coli E8", "conditions": "in agar; Escherichia coli E8; read-out: M.I.C.", "from_the_text": "as §1"}, "Escherichia coli E96R+": {"test_system": "Escherichia coli E96R+", "from_the_text": "as §1"}, "Escherichia coli JT1": {"test_system": "Escherichia coli JT1", "conditions": "in agar; Escherichia coli JT1; read-out: M.I.C.", "from_the_text": "as §1"}, "Escherichia coli JT20R+": {"test_system": "Escherichia coli JT20R+", "from_the_text": "as §1"}, "Escherichia coli JT425C+": {"test_system": "Escherichia coli JT425C+", "conditions": "in agar; Escherichia coli JT425C+; read-out: M.I.C.", "from_the_text": "as §1"}, "Escherichia coli JT4R+": {"test_system": "Escherichia coli JT4R+", "from_the_text": "as §1"}, "[10]": {"test_system": "Escherichia coli NCTC 15418", "conditions": "NCTC15418; in agar; Escherichia coli NCTC 15418; read-out: M.I.C.", "from_the_text": "as §1"}, "[11]": {"test_system": "Klebsiella aerogenes I281", "conditions": "in agar; Klebsiella aerogenes I281; read-out: M.I.C.", "from_the_text": "as §1"}, "[12]": {"test_system": "Klebsiella aerogenes R112", "conditions": "in agar; Klebsiella aerogenes R112; read-out: M.I.C.", "from_the_text": "as §1"}, "[13]": {"test_system": "Klebsiella aerogenes Va2R+", "conditions": "in agar; Klebsiella aerogenes Va2R+; read-out: M.I.C.", "from_the_text": "as §1"}, "Proteus morganii I": {"test_system": "Proteus morganii I", "conditions": "Morganella morganii; in agar; Proteus morganii I; read-out: M.I.C.", "from_the_text": "as §1"}, "Proteus morganii T361": {"test_system": "Proteus morganii T361", "conditions": "Morganella morganii; in agar; Proteus morganii T361; read-out: M.I.C.", "from_the_text": "as §1"}, "Proteus rettgeri I": {"test_system": "Proteus rettgeri I", "conditions": "Providencia rettgeri; in agar; Proteus rettgeri I; read-out: M.I.C.", "from_the_text": "as §1"}, "Proteus rettgeri R110": {"test_system": "Proteus rettgeri R110", "conditions": "Providencia rettgeri; in agar; Proteus rettgeri R110; read-out: M.I.C.", "from_the_text": "as §1"}, "[14]": {"test_system": "Proteus vulgaris NCTC 4395", "conditions": "NCTC4395; in agar; Proteus vulgaris NCTC 4395; read-out: M.I.C.", "from_the_text": "as §1"}, "Proteus vulgaris X": {"test_system": "Proteus vulgaris X", "conditions": "in agar; Proteus vulgaris X; read-out: M.I.C.", "from_the_text": "as §1"}, "[15]": {"test_system": "Pseudomonas aeruginosa Dalgleish", "conditions": "in agar; Pseudomonas aeruginosa Dalgleish; read-out: M.I.C.", "from_the_text": "as §1"}, "[16]": {"test_system": "Pseudomonas aeruginosa NCTC 10662", "conditions": "NCTC10662; in agar; Pseudomonas aeruginosa NCTC 10662; read-out: M.I.C.", "from_the_text": "as §1"}, "[17]": {"test_system": "Pseudomonas aeruginosa W975", "conditions": "in agar; Pseudomonas aeruginosa W975; read-out: M.I.C.", "from_the_text": "as §1"}, "[18]": {"test_system": "Staphylococcus aureus T150+", "conditions": "in agar; Staphylococcus aureus T150+; read-out: M.I.C.", "from_the_text": "as §1"}, "[19]": {"test_system": "Staphylococcus aureus T67+", "conditions": "in agar; Staphylococcus aureus T67+; read-out: M.I.C.", "from_the_text": "as §1"}, "[20]": {"test_system": "Streptococcus faecalis C90", "conditions": "Enterococcus faecalis; in agar; Streptococcus faecalis C90; read-out: M.I.C.", "from_the_text": "as §1"}, "[21]": {"test_system": "Streptococcus faecalis T1101", "conditions": "Enterococcus faecalis; in agar; Streptococcus faecalis T1101; read-out: M.I.C.", "from_the_text": "as §1"}}}
{"molecule": "CC(=O)N/C=C/SC1=C(C(=O)O)N2C(=O)[C@@H]([C@H](C)OS(=O)(=O)O)[C@H]2C1", "note": "[MM 13902, reference compound]", "values": [{"measurement": "MIC", "setting": "[1]", "result": 0.2, "unit": "µg/mL"}, {"measurement": "MIC", "setting": "Bacteroides fragilis B3", "result": 0.4, "unit": "µg/mL"}, {"measurement": "MIC", "setting": "[2]", "result": 1.6, "unit": "µg/mL"}, {"measurement": "MIC", "setting": "[3]", "result": 0.2, "unit": "µg/mL"}, {"measurement": "MIC", "setting": "[4]", "result": 0.2, "unit": "µg/mL"}, {"measurement": "MIC", "setting": "Bacteroides fragilis WS1", "result": 6.2, "unit": "µg/mL"}, {"measurement": "MIC", "setting": "[5]", "result": 0.4, "unit": "µg/mL"}, {"measurement": "MIC", "setting": "[6]", "result": 6.2, "unit": "µg/mL"}, {"measurement": "MIC", "setting": "Citrobacter freundii W18", "result": 6.2, "unit": "µg/mL"}, {"measurement": "MIC", "setting": "[7]", "result": 0.4, "unit": "µg/mL"}, {"measurement": "MIC", "setting": "[8]", "result": 12.5, "unit": "µg/mL"}, {"measurement": "MIC", "setting": "[9]", "result": 12.5, "unit": "µg/mL"}, {"measurement": "MIC", "setting": "Escherichia coli 5", "result": "≤ 0.1", "unit": "µg/mL"}, {"measurement": "MIC", "setting": "Escherichia coli Ba78R+", "result": 0.8, "unit": "µg/mL"}, {"measurement": "MIC", "setting": "Escherichia coli E8", "result": "≤ 0.1", "unit": "µg/mL"}, {"measurement": "MIC", "setting": "Escherichia coli E96R+", "result": 0.2, "unit": "µg/mL"}, {"measurement": "MIC", "setting": "Escherichia coli JT1", "result": "≤ 0.1", "unit": "µg/mL"}, {"measurement": "MIC", "setting": "Escherichia coli JT20R+", "result": 1.6, "unit": "µg/mL"}, {"measurement": "MIC", "setting": "Escherichia coli JT425C+", "result": 0.8, "unit": "µg/mL"}, {"measurement": "MIC", "setting": "Escherichia coli JT4R+", "result": 1.6, "unit": "µg/mL"}, {"measurement": "MIC", "setting": "[10]", "result": "≤ 0.1", "unit": "µg/mL"}, {"measurement": "MIC", "setting": "[11]", "result": 0.2, "unit": "µg/mL"}, {"measurement": "MIC", "setting": "[12]", "result": 0.2, "unit": "µg/mL"}, {"measurement": "MIC", "setting": "[13]", "result": 6.2, "unit": "µg/mL"}, {"measurement": "MIC", "setting": "Proteus morganii I", "result": 0.2, "unit": "µg/mL"}, {"measurement": "MIC", "setting": "Proteus morganii T361", "result": 0.2, "unit": "µg/mL"}, {"measurement": "MIC", "setting": "Proteus rettgeri I", "result": 0.2, "unit": "µg/mL"}, {"measurement": "MIC", "setting": "Proteus rettgeri R110", "result": 0.2, "unit": "µg/mL"}, {"measurement": "MIC", "setting": "[14]", "result": 0.1, "unit": "µg/mL"}, {"measurement": "MIC", "setting": "Proteus vulgaris X", "result": 0.4, "unit": "µg/mL"}, {"measurement": "MIC", "setting": "[15]", "result": 50, "unit": "µg/mL"}, {"measurement": "MIC", "setting": "[16]", "result": 25, "unit": "µg/mL"}, {"measurement": "MIC", "setting": "[17]", "result": 50, "unit": "µg/mL"}, {"measurement": "MIC", "setting": "[18]", "result": 1.6, "unit": "µg/mL"}, {"measurement": "MIC", "setting": "[19]", "result": 0.8, "unit": "µg/mL"}, {"measurement": "MIC", "setting": "[20]", "result": 6.2, "unit": "µg/mL"}, {"measurement": "MIC", "setting": "[21]", "result": 6.2, "unit": "µg/mL"}]}
